# Patent publication US20030036513A1, “Method for treating cancer” (priority 1999, published 2003)
# Experiments:
# cells = assay: Chemosensitizing of an anti-cancer agent by a co-administered redox clamping agent (FIG. 2); format: cell-based
# Description: The present invention further provides a method of reducing the effective dose of an anti-cancer agent necessary to be effective against cancer comprising administering a redox clamping agent in conjunction with an anti-cancer agent. It is preferred that the redox clamping agent is Mesna or DMSA. Redox clamping agents have the ability to maintain cells in a selected redox state. […] Redox clamping agents are useful in enhancing the therapeutic activity of chemotherapeutic agents such as butyrate that are dependent upon the redox state of the cell. Redox clamping agents are further useful in controlling hyperproliferation of cells and conditions associated with abnormal fluctuations in the redox state of cells. In one aspect, this invention provides a method of treating cancerous tumors comprising administering an effective dose of an anti-cancer agent in conjunction with a redox clamping agent, wherein the redox clamping agent acts as a chemoenhancer or a chemosensitizer. […] The administration of Mesna in conjunction with an anti-cancer agent may be as separate compounds or in a composition formulated and titrated to a dose and in a concentration that would achieve the optimal therapeutic dose of the anti-cancer agent providing a higher tumor cell kill with a lower dose of the anti-cancer agent than the typical therapeutic dose administered to a patient. […]
# H4 Rat Hepatoma cells = assay: Stress-induced antioxidant upswing in H4 Rat Hepatoma cells after hydrogen peroxide; format: cell-based; conditions: 100 uM hydrogen peroxide for two hours, medium replaced; determined after 24 hours in culture
# Procedure: To further exemplify the redox clamping properties of Mesna, stress was induced in H4 Rat Hepatoma cells by treatment with 100 uM hydrogen peroxide for two hours and then the medium was removed and replaced with an anti-cancer agent. The cellular viability, as well as glutathione and metallothionein levels were determined after 24 hours in culture. […] The inhibition of stress induced upswing in antioxidant levels is characteristic of redox clamping agents.
# In all of the experiments associated with the investigation of Mesna as a redox clamping agent, as a stand-alone anticancer agent as well as a chemosensitizer, the cell culture medium used was Swim's S-77 medium containing 12 uM cystine, instead of conventional levels of this amino acid (i.e., 50 uM). All other components of the medium were maintained at conventional concentrations. […] The ability of cystine to supply cells with cysteine, which then function as a precursor amino acid for glutathione synthesis, is thought to be responsible for the abnormally high basal levels of glutathione in cultured tumor cell lines.
# Human LNCaP cells = assay: Two-step arsenic then Mesna treatment of human LNCaP cells: apoptosis and glutathione levels (FIG. 1); format: cell-based
# Procedure: In one aspect, the present invention further provides a method of using a redox clamping agent as a chemosensitizer comprising contacting tumor cells with a specific class of cytotoxic agent for a period of time, preferably between 2 and 4 hours, and then washing the agent from the cells and administering the redox clamping agent. It is preferred that the redox clamping agent is Mesna. The cytotoxic or anti-cancer agents used in this design would be those such as arsenic, hydrogen peroxide and other anti-cancer agents that are known to induce a cytotoxic effect by interacting with, depleting or sequestering cellular thiols. During the two to four hour treatment these anti-cancer agents deplete cellular thiols and induce apoptotic mechanisms in the cells. However, the stress-response that is induced in the cells by these anti-cancer agents also up-regulates the production of antioxidants such as glutathione and metallothionein. These antioxidants function as potent inhibitors of apoptosis. If redox clamping agents are added after the apoptotic mechanisms are initiated, but prior to the antioxidant rebound, the redox clamping agents will function in two ways to enhance the cytotoxic effects of the anti-cancer agents. It is preferred that the redox clamping agent be Mesna, which is a thiol with low reducing potential. First, the redox clamping agents will permit the progression of apoptotic signals and the mechanisms required to mediate cell death. Secondly, the redox clamping agents will promote the apoptotic response by dramatically attenuating the antioxidant “rebound” that is associated in the inhibition of apoptosis. Redox clamping agents chemically interact with the anti-cancer agent or oppose aspects of the early stress-response that is induced by pure oxidants. Therefore, a two-step treatment protocol is required.
# Human LNCaP cells, treated with 100 uM arsenic for 2 hours then washed and re-fed with normal medium, develop an elevation in cellular glutathione levels over a 24-hour period. Since exogenous antioxidants are known to be potent inhibitors of apoptotic mechanism, it is believed that internally-produced antioxidants such as glutathione function in a similar manner. […] Although Mesna increases apoptosis alone, the low concentrations of Mesna utilized in this two-step treatment protocol increased apoptosis minimally i.e., to 11 percent from a background of 3 to 5 percent in untreated cells.
# (§1) In all of the experiments associated with the investigation of Mesna as a redox clamping agent, as a stand-alone anticancer agent as well as a chemosensitizer, the cell culture medium used was Swim's S-77 medium containing 12 uM cystine, instead of conventional levels of this amino acid (i.e., 50 uM). […]
# human tumor cell lines = assay: Growth inhibition of human tumor cell lines in culture; format: cell-based
# Description: The present invention provides a method of treating lymphoma, ovarian cancer, colorectal cancer, or gastric cancer comprising administering an effective amount of Mesna to a patient with lymphoma, ovarian cancer, colorectal cancer or gastric cancer. Mesna inhibits the growth of several human tumor cell lines in culture, and there are no strict relationships between the histopathological origin of the cell lines and the sensitivity of the cell lines to Mesna. […] It is further preferred that the patient be administered Mesna for a seven to ten day period. The doses may be cycled. The actual dose will be dependent on the size, type and location of the tumor as well as the overall status of the patient. It is preferred that high concentrations of Mesna be administered intravenously to achieve clamping initially, with further administration of oral doses to maintain the clamped state. […] Cancer cell lines were growth inhibited when Mesna was administered on several consecutive days. Mesna has shown good activity in preventing the urotoxicity of oxazaphosphorine compound.
# as §1
# [1] = test system: metastatic and/or relapsed tumors refractory to conventional therapy; assay: Clinical study of oral Mesna as single agent in 14 patients with metastatic and/or relapsed tumors refractory to conventional therapy; format: in vivo, human
# Procedure: From December 1996 to March 1998 a study was performed on 14 ambulatory patients with metastatic and/or relapsed tumors refractory to conventional therapy. Eligibility criteria included histologically-confirmed advanced cancer, patients age was greater than 18 years, with a life expectancy no less than two months. The patients had not undergone major surgery within 2 weeks, or radiotherapy and/or chemotherapy within one month of the study. […] Exclusion criteria included active uncontrolled infection, pregnancy, lactation and any other co-existing medical problems severe enough to prevent full compliance with the study. Objectively measurable disease in the patients was required. All patients gave informed written consent before treatment. 600 mg/m^2 of Mesna was given by oral route four times a day, masked in orange juice for 10 consecutive days. Cycles were repeated every 15 days. No simultaneous chemotherapy and or radiotherapy and no other supportive care was given. The main objective of the study was to determine the anti-tumoral activity and toxicity of Mesna for heavily and or refractory pretreated cancer patients. […] The patients were all previously treated with between two and four different chemotherapy regimens. Mesna was administered as a single agent to all of the patients in the study. The toxic effects of Mesna and number of nodes were assessed during the first cycle of Mesna administration. […] For colorectal cancer a greater than 50% reduction of nodular lesions metastasized to liver was registered, during the second schedule of therapy. For gastric cancer a greater than 50% reduction of a subcutaneous nodule was measured during the second course of Mesna treatment.
# [2] = within a few minutes after administration; cited from earlier work
# [3] = even in very high dose, i.e. 1000 mg/kg; cited from earlier work
# [4] = arsenic treated cells washed and incubated in medium containing 100 uM Mesna
compound,measurement,setting,value
CCCC(=O)O [Butyrate],concentration at which apoptosis is induced,cells; butyrate alone,greater than 3 mM
same,concentration giving an effective kill,cells; in the presence of a redox clamping agent,≥ 0.5 mM
O=C(O)[C@@H](S)[C@@H](S)C(=O)O [DMSA],"effect on stress-induced upswings in antioxidant levels (glutathione, metallothionein)",H4 Rat Hepatoma cells,oppose stress-induced upswings in antioxidant levels
"O=S(=O)([O-])CCS.[Na+] [Mesna, Sodium-2-mercaptoethane sulphonate]",elevation in glutathione levels,Human LNCaP cells; [4],dramatically diminished
same,fraction of apoptotic cells compared to arsenic alone,Human LNCaP cells; [4],increased more than two-fold
same,apoptosis with Mesna alone,"Human LNCaP cells; low concentration of Mesna as used in the two-step protocol, background 3 to 5 percent in untreated cells",11%
same,"effect on stress-induced upswings in antioxidant levels (glutathione, metallothionein)",H4 Rat Hepatoma cells,oppose stress-induced upswings in antioxidant levels
same,"incorporation of 3H-thymidine, proline and uridine",human tumor cell lines,inhibited incorporation
same,growth of human tumor cell lines in culture,"human tumor cell lines; lymphoma, ovarian cancer, colorectal cancer, gastric cancer lines, drug administered on several consecutive days",inhibits growth of several human tumor cell lines
same,reduction of nodular lesions metastasized to liver,"[1]; colorectal cancer patient, 600 mg/m^2 oral four times a day, second schedule of therapy",greater than 50%
same,reduction of a subcutaneous nodule,"[1]; gastric cancer patient, 600 mg/m^2 oral four times a day, second course of treatment",greater than 50%
same,objective responses,"[1]; patients with lung cancer, soft tissue sarcoma, skin metastases of unknown origin, bladder cancer, melanoma and cancer of the cervix",No objective responses were achieved
same,clinical response in ovarian cancer patients,"[1]; two patients, 600 mg/m^2 oral four times a day for 10 days, cycles every 15 days, second and third course respectively",reduced ascites and pain
same,administered dose transformed into Mesna disulphide,[2],more than 90%
same,pharmacological and toxicological behaviour,[3],relatively inert substance
[AsH3] [arsenic],apoptosis of the cells,"Human LNCaP cells; 100 uM arsenic for 2 hours, then washed and re-fed with normal medium, 24-hour period",28%
